Reference: ChEMBL document CHEMBL1201862, “PubChem BioAssay data set” (2004)
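A five-concentration, 48-hour dose response in 96-well plates underlies each endpoint, interpolated linearly between surrounding concentrations. Here, GI50 denotes the concentration required for 50% inhibition of growth.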 Activity calls are given as the source filed them. Rule as the data show it: active = GI50 up to about 1.1 µM and inactive = higher.

What was measured:
Test in all cases: NCI anticancer screen, dose series, 48 h
[1] = tested on: KM12
[2] = tested on: HL-60
[3] = tested on: OVCAR-8
[4] = tested on: RXF 393
[5] = tested on: M14
[6] = tested on: IGROV-1
[7] = tested on: NCI-H226
[8] = tested on: MDA-N
[9] = tested on: NCI-H460
[10] = tested on: MDA-MB-435
[11] = tested on: SK-MEL-2
[12] = tested on: COLO 205
[13] = tested on: PC-3
[14] = tested on: NCI-H522
[15] = tested on: A498
[16] = tested on: UACC-62
[17] = tested on: SF-295
[18] = tested on: SN12C
[19] = tested on: UACC-257
[20] = tested on: TK-10
[21] = tested on: SK-MEL-5
[22] = tested on: HOP-62
[23] = tested on: MDA-MB-231
[24] = tested on: OVCAR-3
[25] = tested on: UO-31
[26] = tested on: BT-549
[27] = tested on: SNB-19
[28] = tested on: HT-29
[29] = tested on: SF-268
[30] = tested on: RPMI-8226
[31] = tested on: SNB-75
[32] = tested on: SK-OV-3
[33] = tested on: DU-145
[34] = tested on: SK-MEL-28
[35] = tested on: NCI/ADR-RES
[36] = tested on: HCC 2998
[37] = tested on: T47D
[38] = tested on: K562
[39] = tested on: MOLT-4
[40] = tested on: Hs-578T
[41] = tested on: A549
[42] = tested on: OVCAR-5
[43] = tested on: Malme-3M
[44] = tested on: HCT-116
[45] = tested on: EKVX
[46] = tested on: ACHN
[47] = tested on: 786-0
[48] = tested on: OVCAR-4
[49] = tested on: MCF7
[50] = tested on: CCRF-CEM
[51] = tested on: HOP-92
[52] = tested on: U-251
[53] = tested on: SW-620
[54] = tested on: SR
[55] = tested on: HCT-15
[56] = tested on: NCI-H23
[57] = tested on: SF-539

C/C(=C\CBr)CCC(Br)C(C)(C)Br (configuration not stated)
GI50 [1]: > 100 µM (inactive)
GI50 [2]: > 100 µM (inactive)
GI50 [3]: > 100 µM (inactive)
GI50 [4]: > 100 µM (inactive)
GI50 [5]: > 100 µM (inactive)
GI50 [6]: > 100 µM (inactive)
GI50 [7]: > 100 µM (inactive)
GI50 [8]: > 100 µM (inactive)
GI50 [9]: > 100 µM (inactive)
GI50 [10]: > 100 µM (inactive)
GI50 [11]: > 100 µM (inactive)
GI50 [12]: > 100 µM (inactive)
GI50 [13]: > 100 µM (inactive)
GI50 [14]: > 100 µM (inactive)
GI50 [15]: > 100 µM (inactive)
GI50 [16]: > 100 µM (inactive)
GI50 [17]: > 100 µM (inactive)
GI50 [18]: > 100 µM (inactive)
GI50 [19]: > 100 µM (inactive)
GI50 [20]: > 100 µM (inactive)
GI50 [21]: > 100 µM (inactive)
GI50 [22]: > 100 µM (inactive)
GI50 [23]: > 100 µM (inactive)
GI50 [24]: > 100 µM (inactive)
GI50 [25]: > 100 µM (inactive)
GI50 [26]: > 100 µM (inactive)
GI50 [27]: > 100 µM (inactive)
GI50 [28]: > 100 µM (inactive)
GI50 [29]: > 100 µM (inactive)
GI50 [30]: > 100 µM (inactive)
GI50 [31]: > 91.8 µM (inactive)
GI50 [32]: > 100 µM (inactive)
GI50 [33]: > 100 µM (inactive)
GI50 [34]: > 100 µM (inactive)
GI50 [35]: > 100 µM (inactive)
GI50 [36]: > 100 µM (inactive)
GI50 [37]: > 100 µM (inactive)
GI50 [38]: > 100 µM (inactive)
GI50 [39]: > 100 µM (inactive)
GI50 [40]: > 100 µM (inactive)
GI50 [41]: > 100 µM (inactive)
GI50 [42]: > 100 µM (inactive)
GI50 [43]: > 100 µM (inactive)
GI50 [44]: > 100 µM (inactive)
GI50 [45]: > 100 µM (inactive)
GI50 [46]: > 100 µM (inactive)
GI50 [47]: > 100 µM (inactive)
GI50 [48]: > 100 µM (inactive)
GI50 [49]: > 100 µM (inactive)
GI50 [50]: > 100 µM (inactive)
GI50 [51]: > 100 µM (inactive)
GI50 [52]: > 100 µM (inactive)
GI50 [53]: > 100 µM (inactive)
GI50 [54]: > 100 µM (inactive)
GI50 [55]: > 100 µM
GI50 [56]: > 100 µM (inactive)
GI50 [57]: > 100 µM (inactive)
